Reference: US9481713B2, “Self-assembling peptides incorporating modifications and methods of use thereof” (Massachusetts Institute of Technology, priority 2010, dated 2016)

Tests used:
[1] = biological target: T1, MMP-2 (Homo sapiens, UniProt P08253); details: reference 19b; cited from earlier work
T1 sequence (P08253 110-660): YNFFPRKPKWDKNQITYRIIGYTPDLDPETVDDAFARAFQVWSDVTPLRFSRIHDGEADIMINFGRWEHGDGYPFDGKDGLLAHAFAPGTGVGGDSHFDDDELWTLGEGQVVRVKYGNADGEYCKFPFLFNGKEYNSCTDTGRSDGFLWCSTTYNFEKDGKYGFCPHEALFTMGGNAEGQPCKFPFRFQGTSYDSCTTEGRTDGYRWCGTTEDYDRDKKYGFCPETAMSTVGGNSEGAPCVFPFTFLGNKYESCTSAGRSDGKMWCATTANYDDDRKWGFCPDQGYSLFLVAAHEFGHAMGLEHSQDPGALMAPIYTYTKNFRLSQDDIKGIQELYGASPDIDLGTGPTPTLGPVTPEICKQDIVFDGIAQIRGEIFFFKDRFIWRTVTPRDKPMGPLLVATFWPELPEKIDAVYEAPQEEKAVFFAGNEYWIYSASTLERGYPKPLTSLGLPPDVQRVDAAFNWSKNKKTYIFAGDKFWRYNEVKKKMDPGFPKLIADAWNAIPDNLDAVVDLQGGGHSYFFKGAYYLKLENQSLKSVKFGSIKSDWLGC

[2] = test system: human periodontal ligament fibroblasts (HPDLF); experiment: Periodontal ligament fibroblast attachment and proliferation on peptide scaffolds; assay type: cell-based; details: periodontal ligament fibroblasts cultured for three weeks
Description: (§1) 1% RADA16 solution was obtained as PuraMatrix (3DM Inc./BD Bioscience). VEVK9, VEVK12 and the functionalized peptides were obtained from CPC Scientific (San Jose, Calif.) and dissolved in water at final concentration of 1% […]. The functionalized peptide solutions were then mixed with 1% RADA16, VEVK9 or VEVK12 solution at a ratio of 1:1. Each peptide solution was then loaded in the cell culture plate insert (BD Bioscience, Bedford, Mass.). The medium described below was added to induce hydrogel formation.
(§2) Primary isolated human periodontal ligament fibroblasts were commercially obtained from Lonza Inc. (HPDLF, Walkersville, Md.) and routinely grown in the culture medium (SCGM, Walkersville, Md.) on regular cell culture flask. The cells were plated at 2×10^4 cells on the gel in the inserts. The culture medium was changed every three days. Additional growth factors were not used.
(§3) Following the experiments, the cells on the gel were fixed with 4% paraformaldehyde for 15 min and permeabilized with 0.1% Triton X-100 for 5 min at room temperature. Fluorescent Rhodamin phalloidin and SYTOX® Green (Molecular Probes, Eugene, Oreg.) were used for labeling F-actin and nuclei, respectively. Images were taken using a fluorescence microscope (Axiovert 25, ZEISS) or laser confocal scanning microscope (Olympus FV300).

[3] = test system: human periodontal ligament fibroblasts (HPDLF); experiment: Periodontal ligament fibroblast migration into peptide scaffolds (confocal microscopy); assay type: cell-based; details: for fibroblast adhesion, proliferation and 3-D migration into scaffold: reconstructed confocal images
Description: as §1, §2, §3
The functionalized peptide was obtained from CPC Scientific (San Jose, Calif.) and dissolved in water at final concentration of 1% […] as well. The functionalized peptide solutions were then mix with 1% VEVK9 or VEVK12 solution. The each peptide solution was loaded in the cell culture plate insert (BD Bioscience, Bedford, Mass.). The medium described below was added to induce hydrogel formation.

[4] = test system: Human gingival fibroblasts (HGF-1); experiment: Gingival fibroblast attachment and migration on peptide scaffolds (selective cell reproduction); assay type: cell-based; details: Example 2 comparison study, HGF-1 (FIG. 6)
Description: We tested the selective cell reproduction property of the functional scaffolds, using two periodontal cells, periodontal ligament fibroblasts and gingival fibroblasts.
Human gingival fibroblasts were commercially obtained from ATCC (HGF-1) and routinely grown in the culture medium (DMEM+10% FBS) on regular cell culture flask. The cells were plated at 2×10^4 cells on the gel in the inserts. The culture medium was changed every three days.

[5] = test system: human periodontal ligament fibroblasts (HPDLF); experiment: Fluorescent immunostaining of type I and type III collagen production on peptide scaffolds; assay type: cell-based; details: six weeks cell culture, compared to RADA16 (FIG. 5)
Description: as §2
After the cell fixation, the primary antibody for type I collagen (5% Anti-collagen type I, Millpore, Mass.) was added and incubated at 37° for 40 min, then washing six times with PBS with 1% BSA. The second antibody (0.5% Alexa fluor 488 goat anti-rabbit IgG, Invitrogen) was added and incubated at 37° for another 40 min, then washing as well. After that, the primary antibody for type III collagen (0.5% Anti-collagen type III, Millpore, Mass.) was added and incubated at 37° for 40 min, then washing. Finally, the second antibody (0.5% Alexa fluor 594 goat ant-mouse IgG, Invitrogen) was added and incubated at 37° for another 40 min. Nonspecific staining as a control was performed by omitting primary antibodies.

[6] = Tapping mode AFM analysis of nanofiber formation; assay type: physicochemical; details: aqueous solutions
Text: VEVK9 and VEVK12 are simple repeating units of amino acids VEVK (Valine-Glutamate-Valine-Lysine) which self-assemble into a nanofiber structure. The self-assembling peptide VEVK9 was functionalized either with RGD, laminin cell adhesion motifs or an MMP cleavable motif in order to mimic extracellular matrix to enhance cell maintenance and function in cell cultures. The functionalized peptides vPRG, vYIG and vIKV were synthesized with the VEVK9 sequence plus an additional motif added to the C-terminus using solid phase synthesis. One motif contains two repetitions of the RGD sequence (PRGDSGYRGDS (SEQ ID NO: 15)), and the others are cell adhesion motifs of laminin (YIGSR (SEQ ID NO: 5), IKVAV (SEQ ID NO: 6)). Glycine residues were used between the self-assembling motif VEVKVEVKV (SEQ ID NO: 2) and the functional motif as a spaced linker to keep the flexibility of the functional peptides. The MMP-2 cleavable motif (PVGLIG (SEQ ID NO: 11)) was inserted between two VEVK units. In comparison to RADA16-I and its functionalized peptides, these peptides are short sequences, maximum 20 amino acids (in vPRG), and seem to be cost-effective. The peptides were solubilized in water at a concentration of 10 mg/ml (1%, w/v). The peptides readily undergo self-assembly to form soft hydrogels. Mixing with self-assembling peptide VEVK9 or VEVK12 facilitated self-assembly and gelation. […]

Row | Substance | cell attachment and morphology [2] | fibroblast adhesion, proliferation and 3-D migration into scaffold [3] | further results
1 | (RADA)3PVGLIG (RADA)3 (RADARADARADAPVGLIGRADARA) | – | – | degradability by MMP-2 [1]: degradable by MMP-2
2 | Ac-VEVKVEVKVGIKVAVCONH2 [vIKV] | good attachment and extension | migrate into them in the same manner | –
3 | Ac-VEVKVEVKVGYIGSRCONH2 [vYIG] | good attachment and extension | migrate into them in the same manner | –
4 | Ac(RADA)4CONH2 (Ac-RADARADARADARADA-NH2) [RADA16, 1% peptide A solution; self assembling motif, obtained as PuraMatrix] | – | – | periodontal ligament fibroblast attachment and migration ([3]; Example 2 comparison study (FIG. 6)): did not show migration in both fibroblasts; gingival fibroblast attachment and migration [4]: did not show migration in both fibroblasts; type I and type III collagens production [5]: not to produce collagens
5 | Ac-VEVKVEVKVEVK-CONH2 (Ac-VEVKVEVKVEVK-NH2) [VEVK12, 1% peptide F solution] | sparse and have a rounded morphology | – | formation of nanofibers [6]: formed nanofibers
6 | Ac-VEVKGPVGLIGVEVKCONH2 [vPVG] | – | significant increases in fibroblast proliferation and migration | –
7 | Ac-VEVKVEVKV-CONH2 (Ac-VEVKVEVKV-NH2) [VEVK9, 1% peptide E solution] | sparse and have a rounded morphology | Only a few fibroblasts adhered | –
8 | Ac-VEVKVEVKVGPRGDSGYRGDSGCONH2 [vPRG] | good attachment and extension | significant increases in fibroblast proliferation and migration | –
